In US12479827B2, “Heteroaromatic carboxamide derivatives as plasma kallikrein inhibitors” (Boehringer Ingelheim International GmbH, priority 2020, dated 2025):

What was measured:
Format in all cases: biochemical
Human PKK = target: T1, Human PKK (Homo sapiens, UniProt P03952); experiment: Inhibition of PKK using an endpoint assay (human PKK); conditions: fluorogenic substrate H-Pro-Phe-Arg-AMC, 1 h room temperature, method names human or rat PKK, table does not say which
T1 construct: purchased Enzyme Research Laboratories
In short: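 Human PKK inhibition measured in 100 mM Tris, 150 mM NaCl, pH 7.8, 0.1% BSA, 0.05% Tween20, 1% DMSO. Endpoint format: reaction stopped with PPACK II at 1 μM final, fluorescence read at 355 nm excitation/460 nm emission.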

human TK1 = target: T2, human TK1 (Homo sapiens, UniProt P06870); experiment: Inhibition of TK1 (Ki); conditions: activated human TK1, substrate H-Pro-Phe-Arg-AMC, 24° C.
T2 construct: purchased R&D Systems
Experimental: The ability of compounds of formula (I) to inhibit plasma kallikrein (PKK), Factor XIIa (FXIIa), Factor XIa (FXIa), Factor Xa (FXa), Factor IIa (alpha-thrombin; FIIa), plasmin, trypsin, tissue kallikrein 1 (TK1), Factor VIIa (FVIIa), or FVIIa complexed with Tissue Factor, phospholipids and CaCl2 (FVIIa/TF/PL/CaCl2) is determined using the following biochemical assays in assay buffer (100 mM Tris, 150 mM NaCL, adjusted to a pH of 7.8 with HCl, and containing 0.1% (w/v) BSA and 0.05% (v/v) Tween20) in the presence of 1% (v/v) DMSO:
Prior to the assay, human TK1 (R&D Systems) is activated by incubation with human trypsin (Calbiochem) in a 1:10,000 ratio for 15 min at 37° C. For assaying TK1 inhibitory activity, activated TK1 (31.25 nM or 1 U/mL) is incubated at 24° C. with 0.1 mM fluorogenic substrate H-Pro-Phe-Arg-AMC (11295 from Bachem) and various concentrations of the test compound in assay buffer. Measurements are performed in a kinetic interval every 2nd minute for 16 min using a Spectramax M5 (Molecular Devices) with the following settings of the wavelength excitation of 350 nm and wavelength emission of 450 nm.
The pIC50 values are then fitted using a four-parametric fitting procedure using GraphPad Prism (version 6; GraphPad Software, Inc.). Respective Ki values are obtained by correction of the IC50 values for the respective KM value of the used substrate (see Table A for the obtained KM values of the used substrates) using the following formula:
[formula] Where the IC50 is in molar and the KM value in mM.

[1] = target: T3, PKK in kaolin activated human platelet poor plasma (Homo sapiens, UniProt P03952); experiment: Inhibition of PKK in kaolin activated human PPP; conditions: 25-750 μg/mL kaolin, global fit, text b200 calls the values IC90;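 also: readout is the rate of fluorogenic substrate cleavage in rfu per min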
T3 construct: Platelet poor plasma (PPP) obtained from human wholeblood; from tissue
Experimental: Platelet poor plasma (PPP) obtained from human wholeblood, anticoagulated with Na-Citrate, is incubated with various concentrations of the test compound together with either 25, 75, 250, or 750 μg/mL kaolin in assay buffer for 20 min at 37° C. such that for each kaolin dose used a concentration response is obtained for the test compound.

T3 sequence (P03952 391-638 limits assumed): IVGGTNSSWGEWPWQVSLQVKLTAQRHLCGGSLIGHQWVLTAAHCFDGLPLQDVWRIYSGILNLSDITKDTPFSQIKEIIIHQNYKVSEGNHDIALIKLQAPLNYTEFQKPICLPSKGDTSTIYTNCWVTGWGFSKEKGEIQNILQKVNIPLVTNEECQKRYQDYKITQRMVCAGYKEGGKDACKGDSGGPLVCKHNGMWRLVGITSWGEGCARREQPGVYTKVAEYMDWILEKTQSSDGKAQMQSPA
T3 sequence (P03952 20-390 limits assumed): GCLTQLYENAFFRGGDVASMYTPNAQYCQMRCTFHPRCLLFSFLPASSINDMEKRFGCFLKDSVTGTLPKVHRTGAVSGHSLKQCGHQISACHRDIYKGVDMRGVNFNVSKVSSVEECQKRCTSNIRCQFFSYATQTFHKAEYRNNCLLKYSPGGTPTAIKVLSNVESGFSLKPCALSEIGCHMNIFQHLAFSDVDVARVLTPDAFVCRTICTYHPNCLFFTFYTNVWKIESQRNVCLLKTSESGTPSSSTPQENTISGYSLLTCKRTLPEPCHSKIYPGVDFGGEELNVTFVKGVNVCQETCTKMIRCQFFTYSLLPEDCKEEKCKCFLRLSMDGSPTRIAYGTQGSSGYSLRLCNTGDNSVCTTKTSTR
T1 sequence (P03952 20-390 limits assumed): as above
T1 sequence (P03952 391-638 limits assumed): as the sequence (P03952 391-638 limits assumed) above
T2 sequence (P06870 25-262): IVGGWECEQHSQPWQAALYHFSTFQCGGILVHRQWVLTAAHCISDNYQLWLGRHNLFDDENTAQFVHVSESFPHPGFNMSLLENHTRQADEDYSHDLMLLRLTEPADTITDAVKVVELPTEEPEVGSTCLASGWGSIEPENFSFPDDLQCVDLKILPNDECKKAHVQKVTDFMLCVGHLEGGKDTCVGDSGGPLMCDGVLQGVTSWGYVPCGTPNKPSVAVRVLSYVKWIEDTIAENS

SMILES	IC50 (Human PKK) [nM]	Ki (human TK1) [nM]	IC50 [1] [nM]
Cn1cnc2c1CC[C@H]2NC(=O)c1cn(Cc2ccc(N3CC4(CC4)C3)nc2C(F)F)nn1 [Example 4, 1-[(6-{5-Azaspiro[2.3]hexan-5-yl}-2-(difluoromethyl)-pyridin-3-yl)methyl]-N-[(4R)-1-methyl-1H,4H,5H,6H-cyclo-penta[d]imidazol-4-yl]-1H-1,2,3-triazole-4-carboxamide]	0.9	> 10000	184
Cn1cnc2c1CC[C@H]2NC(=O)c1cn(Cc2ccc(N3CC4(CC4)C3)nc2Br)cn1 [Example 16, 1-[(6-{5-Azaspiro[2.3]hexan-5-yl}-2-bromopyridin-3-yl)methyl]-N-[(4R)-1-methyl-1H,4H,5H,6H-cyclopenta[d]imidazol-4-yl]-1H-imidazole-4-carboxamide]	0.6	> 10000	280
CCc1nc(N2CC3(CC3)C2)ccc1Cn1cc(C(=O)N[C@@H]2CCc3c2ncn3C)nn1 [Example 20, 1-[(6-{5-Azaspiro[2.3]hexan-5-yl}-2-ethylpyridin-3-yl)methyl]-N-[(4R)-1-methyl-1H,4H,5H,6H-cyclo-penta[d]imidazol-4-yl]-1H-1,2,3-triazole-4-carboxamide]	0.7	> 10000	99
CCc1nc(N2CC3CC3C2)ccc1Cn1cc(C(=O)N[C@@H]2CCc3c2ncn3C)cn1 (stereo partly drawn) [Example 22, 1-[(6-{3-Azabicyclo[3.1.0]hexan-3-yl}-2-ethylpyridin-3-yl)methyl]-N-[(4R)-1-methyl-1H,4H,5H,6H-cyclopenta[d]imidazol-4-yl]-1H-pyrazole-4-carboxamide]	0.5	> 10000	249
Cc1nc(N2CC3CC3C2)ccc1Cn1cnc(C(=O)N[C@@H]2CCc3c2ncn3C)c1 (stereo partly drawn) [Example 23, 1-[(6-{3-Azabicyclo[3.1.0]hexan-3-yl}-2-methylpyridin-3-yl)methyl]-N-[(4R)-1-methyl-1H,4H,5H,6H-cyclopenta[d]imidazol-4-yl]-1H-imidazole-4-carboxamide]	1.1	> 10000	233
Cc1cc(N2CC3CC3C2)ncc1Cn1cc(C(=O)N[C@@H]2CCc3c2ncn3C)cn1 (stereo partly drawn) [Example 113, 1-[(6-{3-Azabicyclo[3.1.0]hexan-3-yl}-4-methylpyridin-3-yl)methyl]-N-[(4R)-1-methyl-1H,4H,5H,6H-cyclopenta[d]imidazol-4-yl]-1H-pyrazole-4-carboxamide]	9.9	> 10000	
Cn1cnc2c1CC[C@H]2NC(=O)c1cn(Cc2ccc(N3CC4CC4C3)cc2C#N)cn1 (stereo partly drawn) [Example 206, 1-[(4-{3-azabicyclo[3.1.0]hexan-3-yl}-2-cyanophenyl)methyl]-N-[(4R)-1-methyl-1H,4H,5H,6H-cyclopenta[d]imidazol-4-yl]-1H-imidazole-4-carboxamide]	0.4		138
Cn1cnc2c1CC[C@H]2NC(=O)c1cn(Cc2ccc(N3CC4CC4C3)cc2CO)cn1 (stereo partly drawn) [Example 207, 1-[(4-{3-azabicyclo[3.1.0]hexan-3-yl}-2-(hydroxymethyl)phenyl)methyl]-N-[(4R)-1-methyl-1H,4H,5H,6H-cyclopenta[d]imidazol-4-yl]-1H-imidazole-4-carboxamide]	3.2		745
Cn1cnc2c1CC[C@H]2NC(=O)c1cnn(Cc2ccc(N3CC4C(C3)C4(F)F)cc2C#N)c1 (stereo partly drawn) [Example 208, 1-[(2-cyano-4-{6,6-difluoro-3-azabicyclo-[3.1.0]hexan-3-yl}phenyl)methyl]-N-[(4R)-1-methyl-1H,4H,5H,6H-cyclopenta[d]imidazol-4-yl]-1H-pyrazole-4-carboxamide]	0.6		80
Cn1cnc2c1CC[C@H]2NC(=O)c1cnn(Cc2ccc(N3CC4C(C3)C4(F)F)cc2Br)c1 (stereo partly drawn) [Example 209, 1-[(2-bromo-4-{6,6-difluoro-3-azabicyclo-[3.1.0]hexan-3-yl}phenyl)methyl]-N-[(4R)-1-methyl-1H,4H,5H,6H-cyclopenta[d]imidazol-4-yl]-1H-pyrazole-4-carboxamide]	1.5		432
Cn1cnc2c1CC[C@H]2NC(=O)c1cn(Cc2ccc(N3CC4C(C3)C4(F)F)cc2C#N)cn1 (stereo partly drawn) [Example 210, 1-[(2-cyano-4-{6,6-difluoro-3-azabicyclo-[3.1.0]hexan-3-yl}phenyl)methyl]-N-[(4R)-1-methyl-1H,4H,5H,6H-cyclopenta[d]imidazol-4-yl]-1H-imidazole-4-carboxamide]	0.4		128
Cn1cnc2c1CC[C@H]2NC(=O)c1cn(Cc2ccc(N3CC4C(C3)C4(F)F)cc2Cl)cn1 (stereo partly drawn) [Example 211, 1-[(2-chloro-4-{6,6-difluoro-3-azabicyclo-[3.1.0]hexan-3-yl}phenyl)methyl]-N-[(4R)-1-methyl-1H,4H,5H,6H-cyclopenta[d]imidazol-4-yl]-1H-imidazole-4-carboxamide]	0.8		590
Cn1cnc2c1CC[C@H]2NC(=O)c1cn(Cc2ccc(N3CC4C(C3)C4(F)F)cc2F)cn1 (stereo partly drawn) [Example 212, 1-[(4-{6,6-difluoro-3-azabicyclo[3.1.0]hexan-3-yl}-2-fluorophenyl)methyl]-N-[(4R)-1-methyl-1H,4H,5H,6H-cyclopenta[d]imidazol-4-yl]-1H-imidazole-4-carboxamide]	2.1		1890
Cn1cnc2c1CC[C@H]2NC(=O)c1cnn(Cc2ccc(N3CC4C(C3)C4(F)F)cc2F)c1 (stereo partly drawn) [Example 213, 1-[(4-{6,6-difluoro-3-azabicyclo[3.1.0]hexan-3-yl}-2-fluorophenyl)methyl]-N-[(4R)-1-methyl-1H,4H,5H,6H-cyclopenta[d]imidazol-4-yl]-1H-pyrazole-4-carboxamide]	2.3		621
Cn1cnc2c1CC[C@H]2NC(=O)c1cn(Cc2cnc(N3CC4CC4C3)nc2CO)cn1 (stereo partly drawn) [Example 214, 1-[(2-{3-Azabicyclo[3.1.0]hexan-3-yl}-4-(hydroxymethyl)pyrimidin-5-yl)methyl]-N-[(4R)-1-methyl-1H,4H,5H,6H-cyclopenta[d]imidazol-4-yl]-1H-imidazole-4-carboxamide]	20.3		1040
CC(O)c1nc(N2CC3C(C2)C3(F)F)ccc1Cn1cc(C(=O)N[C@@H]2CCc3c2ncn3C)nn1 (stereo partly drawn) [Example 215, 1-[(6-{6,6-Difluoro-3-azabicyclo[3.1.0]hexan-3-yl}-2-(1-hydroxyethyl)pyridin-3-yl)methyl]-N-[(4R)-1-methyl-1H,4H,5H,6H-cyclopenta[d]imidazol-4-yl]-1H-1,2,3-triazole-4-carboxamide]	0.7		194
Cc1nc(N2CC3CC3C2)ccc1Cn1cc(C(=O)N[C@@H]2CCc3c2ncn3C)c(CCO)n1 (stereo partly drawn) [Example 216, 1-[(6-{3-Azabicyclo[3.1.0]hexan-3-yl}-2-methylpyridin-3-yl)methyl]-3-(2-hydroxyethyl)-N-[(4R)-1-methyl-1H,4H,5H,6H-cyclopenta[d]imidazol-4-yl]-1H-pyrazole-4-carboxamide]	1.2		> 10000
COCc1nc(N2CC3CC3C2)ccc1Cc1cc(C(=O)N[C@@H]2CCc3c2ncn3C)[nH]n1 (stereo partly drawn) [Example 219, 3-[(6-{3-Azabicyclo[3.1.0]hexan-3-yl}-2-(methoxymethyl)pyridin-3-yl)methyl]-N-[(4R)-1-methyl-1H,4H,5H,6H-cyclopenta[d]imidazol-4-yl]-1H-pyrazole-5-carboxamide]	3.6		776
Cn1cnc2c1CC[C@H]2NC(=O)c1cc(Cc2ccc(N3CC4CC4C3)nc2CO)n[nH]1 (stereo partly drawn) [Example 220, 3-[(6-{3-Azabicyclo[3.1.0]hexan-3-yl}-2-(hydroxymethyl)pyridin-3-yl)methyl]-N-[(4R)-1-methyl-1H,4H,5H,6H-cyclopenta[d]imidazol-4-yl]-1H-pyrazole-5-carboxamide]	1.9		525
Cc1nc(N2CC3(CC3)C2)ncc1Cn1cc(C(=O)N[C@@H]2CCc3c2ncn3C)cn1 [Example 222, 1-[(2-{5-Azaspiro[2.3]hexan-5-yl}-4-methylpyrimidin-5-yl)methyl]-N-[(4R)-1-methyl-1H,4H,5H,6H-cyclopenta[d]imidazol-4-yl]-1H-pyrazole-4-carboxamide]	11.6	7280	
